Results on one compound are retold here after publication PMC7824033, “Flavones, Flavonols, and Glycosylated Derivatives—Impact on Candida albicans Growth and Virulence, Expression of CDR1 and ERG11, Cytotoxicity” (Pharmaceuticals, 2020).

Converted amounts (≈) assume the structure as drawn. Where two headings read alike, the source gives them in different places.

In one data set the test system is C. albicans 10/15. Description: Microdilution assay, MIC and MFC. It counts as cell-based. Particulars: Candida albicans, C. albicans 10/15, mean ± SD of three replicates. The text has this:
(§1) C. albicans was isolated from oral cavities of patients at ENT Clinic, Clinical Hospital Centre Zvezdara, Belgrade, Serbia after obtaining informed written consent and identified by using CHROMagar plates (Biomerieux, Craponne, France). Strains were maintained on Sabouraud Dextrose Agar (Merck, Darmstadt, Germany) and are deposited at the Mycological Laboratory, Department of Plant Physiology, Institute for Biological Research “Siniša Stanković”, National Institute of Republic of Serbia, University of Belgrade. The collection of samples was approved by the Ethical Committee (Office for Human Research Protection, Zvezdara University Medical Center, Belgrade, Serbia, document issued 26 October 2016).
(§2) Microdilution assay with some modification was used for determination of minimum inhibitory (MIC) and minimum fungicidal concentrations (MFC). Yeast cultures were adjusted to 1.0 × 10^5 CFU/per well with sterile PBS (Phosphate buffered saline, pH 7.4). The 96-well microtiter plates with serially diluted flavonoids (concentration range 0.3–75 µg/mL) in liquid broth were incubated at 37 °C for 24 h. After incubation, MIC and MFC were determined. The lowest concentrations that were not inducing microscopically observed growth were considered as MIC. For microscopic determination of growth, we used inverted microscope Nikon Eclipse TS2 (Amsterdam, Netherland) and examined the fungal growth in the wells of 96-well microtiter plates compared to the control (untreated yeast cells). MFC values were determined as concentrations without visible growth after serial sub-cultivation of 10 µL of samples at 37 °C for 24 h. Ketoconazole and amphotericin B (SigmaAldrich, Darmstadt, Germany) were used as an antifungal control. The tested flavonoids were obtained from Extrasynthese, Rhone, France.

The next data set deals with C. albicans 13/15. Description: Microdilution assay, MIC and MFC. Particulars: Candida albicans, C. albicans 13/15, mean ± SD of three replicates. The format is cell-based.
From the text: as §1, §2
(In general: Broth dilution looks for growth in wells or tubes with falling amounts of substance.)

The test system of another data set is C. albicans 475/15. Description: Microdilution assay, MIC and MFC. The format is cell-based. Particulars: Candida albicans, C. albicans 475/15, mean ± SD of three replicates.
From the text: as §1, §2

For the next data set, the system named is C. albicans 527/14. Description: Microdilution assay, MIC and MFC. The format is cell-based. The following applies: Candida albicans, C. albicans 527/14, mean ± SD of three replicates.
From the text: as §1, §2

A further data set concerns Candida albicans. Description: Microdilution assay, MIC (strain not named). The format is cell-based. The following applies: C. albicans, this study, strain not given, read-out: minimum inhibitory concentration (MIC).
From the text: as §1, §2

In another data set the test system is CDR1. Description: Expression of CDR1 (qPCR). It counts as cell-based, Candida albicans. Particulars: treatment with MIC. As for the experimental part:
Total RNA was isolated as described by Sanglard et al. with some modifications. C. albicans 475/15 was grown with agitation at 30 °C in YEPD until OD540 = 0.4. C. albicans cells were incubated with MIC of compounds in YEPD at 30 °C with agitation for 30 min. Cells were centrifuged (4600 rpm, 4 °C for 5 min (Rotanata 460 R, Hettich, Tuttlingen, Germany)) and the pellet was resuspended in 300 µL of RNA buffer (0.1 M Tris-HCl pH 7.5, 0.1M LiCl, 10mM EDTA, 0.5% SDS). The pellet was homogenized with 200 µL of DEPC treated glass beads and 300 µL of Phenol:Chloroform:Isoamyl Alcohol (Sigma-Aldrich, Darmstadt, Germany) in Precellys Evolution tissue homogenizer (Bertion instruments, Montigny-le-Bretonneux, France) at 4500 rpm for 5 s. After centrifugation (14,000 rpm, 4 °C, 1 min (Universal 32 R, Hettich, Tuttlingen, Germany)) 200 µL of supernatant was vortexed with 250 µL of Phenol:Chloroform:Isoamyl Alcohol for 10 s. Samples were centrifuged (14,000 rpm, 4 °C, 1 min) and 200 µL of supernatant was transferred to new tubes, 400 µL of ice-cold 99% ethanol was added to each tube, and they were kept on dry ice for 10 min. Samples were centrifuged (14,000 rpm, 4 °C, 2 min), pellet was washed with ethanol (70%), left to dry at room temperature, after which it was dissolved in 50 µL of DEPC treated water. Nanodrop (ND-1000, Witec AG, Sursee, Switzerland) was used for determination of concentration and purity of samples. RNA was stored at −80°C.
Amount of 10 µg RNA was incubated with 5 µL of DNAse buffer and 1 µL of DNAse at 37 °C for 30 min (DNA-free™ DNA Removal Kit, Ambion, Bleiswijk, Netherlands). After addition of DNAse inactivation reagent tubes were kept at room temperature with occasional vortexing for 5 min. Samples were centrifuged (14,000 rpm, 4°C, 2 min) and the concentration and quality of supernatant were analyzed on Nanodrop (ND-1000, Witec AG, Sursee, Switzerland).
Synthesis of cDNA was done with a Transcriptor High Fidelity cDNA synthesis kit (Roche). RNA (1 µg) was incubated with 60 µM random hexamer primers, in 11.4 µL of total sample volume, at 65 °C for 10 min. The mixture of Transcriptase reaction buffer 5×, Deoxynucleotide mix, DTT, Protector RNAse inhibitor, and Transcriptor High Fidelity Reverse Transcriptase was added to each tube according to manufacturer instructions. Synthesis of cDNA was completed by incubating the mixture at 50 °C for 30 min and 85 °C for 5 min (Peqstar thermocycler, Peqlab, Erlangen, Germany).
Wells of MicroAmp Fast 96-Well Reaction plate ((0.1 mL), Applied biosystems, Waltham, MA, USA) were incubated with 10 µL of mixture (cDNA, 2× MasterMix, primers, probe (Table 3), and water). Analysis was performed in StepOnePlus Real Time PCR system with relative standard curve method. Expression levels of CDR1 and ERG11 were normalized to expression of ACT1.
On the technique in general: Quantitative PCR measures a nucleic acid by following its amplification.

A short description of another data set: in vitro. The following applies: pig. As for the experimental part:
(§3) Preparation of PLP2 cell line was performed with freshly harvested porcine liver supplied from a local slaughter house. Tissues from the liver were washed in Hank’s balanced salt solution comprising 100 U/mL penicillin and 100 μg/mL streptomycin and split into 1 × 1 mm^3 explants. Some of the prepared explants were set in 25 cm^2 tissue flasks in Dulbecco’s modified Eagle’s medium (DMEM) with 10% fetal bovine serum (FBS), 2 mM nonessential amino acids, 100 U/mL penicillin, and […] streptomycin, and incubation was conducted at 37 °C with 5% CO2 in a humidified atmosphere. The fresh medium was added every 2 days. Cultivation of the cells was further conducted with direct observation by the phase contrast microscope every 2–3 days. Before confluence was achieved, cells were subcultured and seeded in 96-well plates at a density of 1.0 × 10^4 cells per well and cultivated in DMEM supplemented with 10% FBS, 100 U/mL penicillin, and 100 μg/mL streptomycin. Previously described Sulforhodamine B assay was used for the determination of cytotoxicity. The obtained results were defined as GI50 values corresponding to the compound concentration that inhibits 50% of the net cell growth. Ellipticine was used as a positive control.

The subject of a further data set is porcine liver cells PLP2. Description: in vitro. As for the experimental part: as §3
A further data set has as its system C. albicans. Particulars: cited from earlier work.
Another data set relates to C. albicans biofilm. Particulars: 625–5000 µg/mL; C. albicans ATCC 90028; cited from earlier work.
Another data set relates to S. aureus efflux. The arrangement: method as in PMID 25961825. Particulars: S. aureus; cited from earlier work.
For data set [1], the system named is TIG-1 (human lung embryonic fibroblasts). The following applies: read-out: LC50; TIG-1 cells; cited from earlier work.
In data set [2] the test system is HUVE (human umbilical vein endothelial) cells. Particulars: read-out: LC50; cited from earlier work.

As usually defined, the MFC is the smallest concentration meeting the test's criterion for killing the fungus. As usually defined, the GI50 is the concentration giving 50% growth inhibition. Low readings indicate greater sensitivity of the cells, high ones lower sensitivity of the cells. Regarding `O=c1cc(-c2ccc(O)c(O)c2)oc2cc(O)cc(O)c12` [Luteolin, luteolin], the MFC in the data set on C. albicans 10/15 (read-out: MFC) is 75 ± 2 µg/mL (≈ 262 µM); with C. albicans 13/15 (read-out: MFC), 75 ± 2 µg/mL (≈ 262 µM); in the data set with C. albicans 475/15 (read-out: MFC), 75 ± 2 µg/mL (≈ 262 µM); in the data set on C. albicans 527/14 (read-out: MFC), 75 ± 20 µg/mL (≈ 262 µM). The MIC is 37.5 ± 1 µg/mL (≈ 131 µM) in the data set with C. albicans 10/15 (read-out: MIC); 37.5 ± 1 µg/mL (≈ 131 µM) with C. albicans 13/15 (read-out: MIC); 37.5 ± 1 µg/mL (≈ 131 µM) in the data set with C. albicans 475/15 (read-out: MIC); 37.5 ± 1 µg/mL (≈ 131 µM) in the data set on C. albicans 527/14 (read-out: MIC); 37.5 µg/mL (≈ 131 µM) in the data set on Candida albicans; more than 83 µg/mL in the data set on C. albicans (clinical isolates and C. albicans 10231). Also, the MIC is 3100 µg/mL (≈ 10800 µM) in the data set with C. albicans (different C. albicans strains, ref 13) and more than 1000 µg/mL in the data set on C. albicans (different C. albicans strains, ref 15). The “impact on CDR1 expression” value in the data set with CDR1 is listed as “did not exhibit any significant inhibitory potential”. The GI50 in “in vitro” was more than 400 µg/mL. For the same compound, the “cytotoxic effect” value with porcine liver cells PLP2 is “did not exhibit cytotoxic effect”. Also, the “activity towards biofilm” value in the data set with C. albicans biofilm is listed as “inefficient”. The “IC50, efflux inhibition” value in the data set on S. aureus efflux was 75 µg/mL (≈ 262 µM). In addition, the CC50 in data set [1] is 107 µM; in data set [2], 57 µM.
